Measured values taken from ChEMBL document CHEMBL1201862, “PubChem BioAssay data set” (2004).
Activity calls are given as the source filed them.

Tests used:
[1] = target: T1, Sphingosine 1-phosphate receptor 4 (Homo sapiens, UniProt O95977); test: Late stage fluorescence dose response cell-based screening assay for antagonists of the Sphingosine 1-Phosphate Receptor 4 (S1P4). [Related pubchem assays: 1524 (Confirmation screen (S1P4 antagonists).), 1510 (Primary screen (S1P4 antagonists).), 1853 (Summary AID (S1P4 antagonists).), 1692 (Dose response screen (S1P4 antagonists).)]; format: functional
T1 sequence (O95977 whole entry): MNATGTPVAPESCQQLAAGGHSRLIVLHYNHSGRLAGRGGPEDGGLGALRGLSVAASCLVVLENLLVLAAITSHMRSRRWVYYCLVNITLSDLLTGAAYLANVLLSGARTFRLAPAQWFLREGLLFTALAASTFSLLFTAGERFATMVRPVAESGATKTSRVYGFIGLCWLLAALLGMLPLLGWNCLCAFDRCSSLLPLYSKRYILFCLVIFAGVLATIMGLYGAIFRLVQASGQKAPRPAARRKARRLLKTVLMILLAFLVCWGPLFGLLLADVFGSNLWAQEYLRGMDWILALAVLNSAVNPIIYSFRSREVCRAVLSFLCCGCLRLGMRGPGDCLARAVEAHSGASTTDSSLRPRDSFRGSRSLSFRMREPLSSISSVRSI

[2] = target: T1, Sphingosine 1-phosphate receptor 4; test: Fluorescence dose response cell-based high throughput screening assay for antagonists of the Sphingosine 1-Phosphate Receptor 4 (S1P4). [Related pubchem assays: 1524 (Confirmation in triplicates.), 1510 (Primary screen.)]; format: functional
[3] = target: Sphingosine 1-phosphate receptor 1 (Homo sapiens, UniProt P21453); format: functional;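 also: Tango beta-arrestin reporter U2OS cells stimulated with S1P near its EC80; inhibitor potency meaning antagonism of receptor activation by the natural agonist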
[4] = tested on: INS1; test: beta cell apoptosis inhibitors, cytokine rescue, dose response, luminescence, retest (AID 449756); format: functional, cell-based; conditions: Rattus norvegicus;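 also: cell death triggered by IL-1 beta plus TNF-alpha plus IFN-gamma mixture; protective hits raise ATP signal compared with cytokine alone wells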
[5] = Luminescence Cell-Based Dose Response to Identify Activators of 5'UTR Stem-Loop Driven Prion Protein mRNA Translation in H4-C Neuroglioblastoma Cells. [Related pubchem assays: 1829 (Project Summary), 1814 (Primary HTS)]; format: functional
[6] = Luminescence Cell-Based Dose Response HTS to Identify Activators of Luciferase Translation or Activity in H4 […] Cells. [Related pubchem assays: 1829 (Project Summary), 1814 (Primary HTS)]; format: functional
[7] = tested on: H4; test: Luminescence Cell-Based Dose Response HTS to Identify Activators of 5'UTR Stem-Loop Driven Prion Protein mRNA Translation in H4 Neuroglioblastoma Cells. [Related pubchem assays: 1829 (Project Summary), 1814 (Primary HTS)]; format: functional; conditions: Homo sapiens
[8] = Luminescence Cell-Based Dose Response to Identify Activators of Luciferase Translation or Activity in H4-C Neuroglioblastoma Cells. [Related pubchem assays: 1829 (Project Summary), 1814 (Primary HTS)]; format: functional
[9] = Luminescence Cell-Based Dose Confirmation to Identify Activators of 5'UTR Stem-Loop Driven Alpha-Synuclein mRNA Translation in H4 Neuroglioblastoma Cells. [Related pubchem assays: 1829 (Project Summary), 1814 (Primary HTS)]; format: functional
[10] = target: Glyceraldehyde-3-phosphate dehydrogenase (Homo sapiens, UniProt P04406)
[11] = target: T2, Bcl-2-related protein A1 (Mus musculus, UniProt Q07440); test: Bfl-1 inhibitors blocking BH3 peptide binding, confirmation, biochemical, TR-FRET, mouse Bfl-1 (AID 621);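 also: TR-FRET binding of GST-Bfl-1 to FITC-labelled Bid peptide via terbium antibody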
T2 sequence (Q07440 whole entry): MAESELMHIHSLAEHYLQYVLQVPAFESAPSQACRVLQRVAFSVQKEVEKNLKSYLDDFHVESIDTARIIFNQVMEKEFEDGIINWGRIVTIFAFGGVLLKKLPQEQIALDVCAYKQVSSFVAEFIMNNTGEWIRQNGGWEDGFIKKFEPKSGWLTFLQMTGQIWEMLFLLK

[12] = target: T2, Bcl-2-related protein A1; test: Bfl-1 binding inhibitors, SAR follow-up, biochemical, fluorescence polarization (AID 1070)
[13] = target: Sphingosine 1-phosphate receptor 2 (Homo sapiens, UniProt O95136); test: Dose Response Cell Based Assay for Agonists of the S1P2 Receptor of Purchased Analogues. [Related pubchem assays: 729, 843, 854, 736 ]; format: functional
[14] = target: Voltage-gated inwardly rectifying potassium channel KCNH2 (Homo sapiens, UniProt Q12809); test: hERG protection from proarrhythmic block, potency, dose response, cell-based, thallium flux (AID 2121); format: ADME
Voltage-gated inwardly rectifying potassium channel KCNH2, sequence (Q12809 whole entry): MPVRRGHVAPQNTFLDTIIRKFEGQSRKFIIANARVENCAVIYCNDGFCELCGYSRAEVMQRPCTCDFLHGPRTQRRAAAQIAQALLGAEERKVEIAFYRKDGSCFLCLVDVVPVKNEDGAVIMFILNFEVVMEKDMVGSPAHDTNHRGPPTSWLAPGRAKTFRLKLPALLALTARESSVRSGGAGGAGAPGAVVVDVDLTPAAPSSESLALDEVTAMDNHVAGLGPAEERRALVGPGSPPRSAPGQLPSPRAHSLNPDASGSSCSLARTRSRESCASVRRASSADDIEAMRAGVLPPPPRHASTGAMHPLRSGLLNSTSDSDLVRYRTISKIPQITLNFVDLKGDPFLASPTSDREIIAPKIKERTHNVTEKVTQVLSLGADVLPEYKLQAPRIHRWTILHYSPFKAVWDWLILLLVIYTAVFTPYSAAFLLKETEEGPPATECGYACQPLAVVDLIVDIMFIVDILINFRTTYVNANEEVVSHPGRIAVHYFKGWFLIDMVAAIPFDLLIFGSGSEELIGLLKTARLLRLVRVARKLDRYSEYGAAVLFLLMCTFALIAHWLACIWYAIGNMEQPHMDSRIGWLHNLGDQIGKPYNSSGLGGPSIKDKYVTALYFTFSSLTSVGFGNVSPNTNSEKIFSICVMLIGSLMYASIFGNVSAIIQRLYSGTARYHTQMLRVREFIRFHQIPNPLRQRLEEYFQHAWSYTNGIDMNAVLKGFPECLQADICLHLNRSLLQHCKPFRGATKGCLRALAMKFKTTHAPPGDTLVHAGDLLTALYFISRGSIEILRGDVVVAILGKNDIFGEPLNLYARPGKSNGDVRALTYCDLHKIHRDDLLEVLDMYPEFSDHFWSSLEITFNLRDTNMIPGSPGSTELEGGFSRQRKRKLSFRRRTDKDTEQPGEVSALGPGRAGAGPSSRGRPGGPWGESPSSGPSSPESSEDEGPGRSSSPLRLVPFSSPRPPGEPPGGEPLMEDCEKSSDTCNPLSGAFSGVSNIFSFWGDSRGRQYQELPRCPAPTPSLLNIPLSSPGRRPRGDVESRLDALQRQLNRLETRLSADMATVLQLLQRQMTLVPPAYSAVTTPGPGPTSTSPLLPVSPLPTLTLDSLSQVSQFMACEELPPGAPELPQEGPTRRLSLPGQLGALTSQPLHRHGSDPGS

Glyceraldehyde-3-phosphate dehydrogenase, sequence (P04406 whole entry): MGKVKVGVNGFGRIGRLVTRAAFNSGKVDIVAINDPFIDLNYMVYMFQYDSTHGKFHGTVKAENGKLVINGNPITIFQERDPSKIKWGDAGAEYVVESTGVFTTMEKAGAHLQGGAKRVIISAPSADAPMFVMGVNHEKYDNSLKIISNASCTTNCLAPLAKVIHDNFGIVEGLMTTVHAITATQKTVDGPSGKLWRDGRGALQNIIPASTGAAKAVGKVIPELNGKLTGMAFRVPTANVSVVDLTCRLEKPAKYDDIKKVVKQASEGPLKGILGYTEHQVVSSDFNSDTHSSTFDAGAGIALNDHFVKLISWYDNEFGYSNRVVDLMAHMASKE
Sphingosine 1-phosphate receptor 2, sequence (O95136 whole entry): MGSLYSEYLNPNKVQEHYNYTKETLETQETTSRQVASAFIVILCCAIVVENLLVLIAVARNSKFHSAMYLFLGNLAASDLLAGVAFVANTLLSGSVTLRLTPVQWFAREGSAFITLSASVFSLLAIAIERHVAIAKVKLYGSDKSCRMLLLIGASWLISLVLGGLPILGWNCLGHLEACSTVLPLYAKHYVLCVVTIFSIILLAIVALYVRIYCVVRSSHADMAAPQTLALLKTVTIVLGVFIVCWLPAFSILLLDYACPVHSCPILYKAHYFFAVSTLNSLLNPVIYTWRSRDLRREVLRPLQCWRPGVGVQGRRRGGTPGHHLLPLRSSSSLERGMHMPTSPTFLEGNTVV
Sphingosine 1-phosphate receptor 1, sequence (P21453 whole entry): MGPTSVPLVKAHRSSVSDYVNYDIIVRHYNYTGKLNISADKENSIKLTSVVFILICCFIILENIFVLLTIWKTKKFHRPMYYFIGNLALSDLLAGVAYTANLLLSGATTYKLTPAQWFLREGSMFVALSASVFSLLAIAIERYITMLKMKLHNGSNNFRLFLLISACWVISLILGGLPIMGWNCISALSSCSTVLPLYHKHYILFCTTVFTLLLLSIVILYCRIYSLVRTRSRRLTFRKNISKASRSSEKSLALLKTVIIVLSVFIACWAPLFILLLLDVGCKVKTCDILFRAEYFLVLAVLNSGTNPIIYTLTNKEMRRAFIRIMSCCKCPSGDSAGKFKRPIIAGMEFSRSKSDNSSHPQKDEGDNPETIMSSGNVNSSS

CCOC(=O)C(=Cc1ccc(Br)cc1)C(=O)OCC
IC50 [1]: 0.887 µM (active)
IC50 [2]: 0.419 µM (active)
IC50 [3]: 9.77 µM (active)
AC50 [4]: 25 µM (active)

Cc1ccsc1C1NC(=O)c2c(sc3c2CCCC3)N1 (centres undefined)
EC50 [5]: 1.12 µM (active)
EC50 [6]: < 0.1 µM (inconclusive)
EC50 [7]: 48.3 µM (active)
EC50 [8]: 0.643 µM (active)
EC50 [9]: 0.571 µM (active)

O=C1C(Cl)=C(N2CCOCC2)C(=O)N1c1ccc([N+](=O)[O-])cc1
IC50 [10]: > 100 µM (not active)
IC50 [11]: 2.29 µM (active)
IC50 [12]: 1.49 µM (active)

Cc1cc(C(=O)CN2C(=O)C(=O)N(Cc3ccccc3)C2=O)c(C)n1Cc1ccc(F)cc1
EC50 [13]: > 30 µM (not active)

CCc1ccc2nc(NC(=O)c3cc(C)on3)sc2c1
EC50 [14]: 11.6 µM (active)
